According to patent publication US11208379B2, “Compounds, compositions, methods for treating diseases, and methods for preparing compounds” (UNIVERSITY OF LOUISVILLE RESEARCH FOUNDATION, INC., priority 2017, dated 2021):

System: A549 lung cancer cells
Test: Cell death / cell survival by trypan blue exclusion
Type: cell-based, human
Settings: A549, 1 μM, FIG. 36 top panel
Procedure: A549 (human lung adenocarcinoma) cells and MDA-MB-231 (human breast adenocarcinoma) cells were cultured in DMEM medium containing 10% FBS and 1% Penicillin/Streptomycin. IMR-90 (human non-malignant lung fibroblast) cells were cultured in EMEM medium containing 10% FBS and 1% Penicillin/Streptomycin. MCF10A (human non-malignant breast epithelial) cells in MEBM containing 10% FBS. Cell viability after treatment was determined using 3-(4,5-dimethylthiazol-2-yl)-2,5-diphenyltetrazolium bromide (MTT). After 72 h treatment with compound, a 5 mg/ml solution MTT of (Sigma, St. Louis, Mo.) was added in at 1/10 total sample volume. Cells were then incubated for 4 h. Lysis buffer (10% SDS in 0.01 N HCl) was added at half of the original sample volume and incubated overnight. Plates were read at 570 nm. Graphs indicate average of one or two experiments (performed in quadruplet wells)±SEM. Cell death in A549 cells was assessed by trypan blue exclusion. […] ROS production in A549 lung cancer cells after 48 h treatment with the compounds was assayed using ROS-Glo™ H2O2 Assay Kit (Promega).
A549 (human lung adenocarcinoma) cells and MDA-MB-231 (human breast adenocarcinoma) cells were cultured in DMEM medium containing 10% FBS and 1% Penicillin/Streptomycin. IMR-90 (human non-malignant lung fibroblast) cells were cultured in EMEM medium containing 10% FBS and 1% Penicillin/Streptomycin. […]

## CCOC(=S)N/N=C(C)/C(C)=N/NC(=S)NC [I-4]
  cell viability (trypan blue exclusion): less effective
